Patent US20110117165A1, “IMPLANTABLE BONE GRAFT MATERIALS” (AFFINERGY, INC., priority 2009, published 2011)
Ends that are not written are not given here. MP = mini-PEG unit; Mpa = O=C(O)CCS

Key:
BMP-7 = target: T1, BMP-7 (Homo sapiens, UniProt P18075); assay: Binding of immobilized BMP binding peptides to BMP-7 (ELISA)
T1 sequence (P18075 293-431): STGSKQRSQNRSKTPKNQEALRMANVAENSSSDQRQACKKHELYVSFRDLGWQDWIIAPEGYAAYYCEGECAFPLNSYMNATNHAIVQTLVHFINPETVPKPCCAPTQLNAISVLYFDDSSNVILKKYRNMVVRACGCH

BMP-6 = target: T2, BMP-6 (Homo sapiens, UniProt P22004); assay: Binding of immobilized BMP binding peptides to BMP-6 (ELISA); details: BMP at 100 nM and 10 nM
T2 sequence (P22004 375-513): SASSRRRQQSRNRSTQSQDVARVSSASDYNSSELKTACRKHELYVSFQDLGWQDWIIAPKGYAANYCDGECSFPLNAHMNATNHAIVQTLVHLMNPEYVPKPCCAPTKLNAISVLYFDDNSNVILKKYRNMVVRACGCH
Procedure: (§1) BMP binding peptides SEQ ID NOs:1-4 & 8-10 were identified as described in US Patent Application Publication No. US20060051395A1. Briefly, the peptides were identified by phage display using immobilized BMP-2 as a substrate for the phage library selections. Synthetic peptides SEQ ID NOs: 1-2 were determined to bind to BMP-2 with a relative EC50 value of 0.8 nM and 0.9 nM, respectively (data not shown). Separately, the relative binding affinity of peptides SEQ ID NOs: 1-2 for BMP-2 is shown in FIG. 14A (SEQ ID NO: 1 is denoted as P9 and SEQ ID NO: 2 is denoted as P10). Briefly, the results shown in FIG. 14A were generated by immobilizing biotinylated BMP binding peptides SEQ ID NOs:1 & 2 on streptavidin coated plates. Serial dilutions of 200 nM, 20 nM and 2 nM of BMP-2 were incubated with the immobilized BMP binding peptides for 45 minutes, washed, and bound BMP quantified using ELISA.
(§2) BMP binding peptides SEQ ID NOs: 5-7 were identified as described in US Patent Application Publication No. US20090098175A1. Briefly, the peptides were identified by phage display using immobilized GDF-7 (GDF-7 is BMP-12) as a substrate for the phage library selections. […] The data shown in FIG. 14C were collected similarly to that described above for FIGS. 14A-14B except that the serial dilutions of BMP were 100 nM and 10 nM.

BMP-5 = target: T3, BMP-5 (Homo sapiens, UniProt P22003); assay: Binding of immobilized BMP binding peptides to BMP-5 (ELISA); details: BMP at 100 nM and 10 nM
T3 sequence (P22003 317-454): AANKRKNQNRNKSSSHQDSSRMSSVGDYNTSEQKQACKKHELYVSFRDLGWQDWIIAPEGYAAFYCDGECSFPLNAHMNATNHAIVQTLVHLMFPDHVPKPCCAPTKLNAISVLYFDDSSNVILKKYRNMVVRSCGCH
Procedure: as §1, §2

BMP-2 [1] = target: T4, BMP-2 (Homo sapiens, UniProt P12643); assay: Binding of immobilized biotinylated BMP binding peptides to BMP-2 (ELISA); details: BMP-2 at 200, 20 and 2 nM, 45 minutes
T4 sequence (P12643 283-396): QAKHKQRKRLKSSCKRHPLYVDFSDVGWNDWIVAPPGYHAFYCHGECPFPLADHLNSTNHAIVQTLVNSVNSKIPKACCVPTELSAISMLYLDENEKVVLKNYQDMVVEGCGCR
Procedure: as §1

C2C12 cells = assay: Alkaline phosphatase secretion by C2C12 cells in response to BMP-2; format: cell-based; details: peptide 0-3500 nM, 3 days
Procedure: In an experiment to test the biological activity of BMP-2 delivered by BMP binding peptide, alkaline phosphatase secreted by C2C12 cells in response to BMP-2 was measured in the presence and absence of BMP binding peptide in solution. C2C12 cells were incubated with BMP-2 (35 nM) and BMP binding peptide at a concentration ranging from 0-3500 nM. The C2C12 cells were incubated with the BMP-2 and BMP binding peptide for 3 days and the alkaline phosphatase assay was performed as described herein above.

GDF-7 (BMP-12) = target: T5, GDF-7 (BMP-12) (Homo sapiens, UniProt Q7Z4P5); assay: Binding to GDF-7 (phage display selection substrate)
T5 sequence (Q7Z4P5 322-450): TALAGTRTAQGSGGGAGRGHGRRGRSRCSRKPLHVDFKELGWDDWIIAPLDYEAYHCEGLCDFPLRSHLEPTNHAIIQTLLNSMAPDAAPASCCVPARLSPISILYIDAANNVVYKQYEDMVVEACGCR
Procedure: as §2

BMP-2 [2] = target: T6, BMP-2 (UniProt P12643 283-396); assay: relative EC50 of synthetic peptide on BMP-2; format not described, data not shown
T6 construct: also called bone morphogenic protein 2

BMP-2 [3] = target: T6, BMP-2; assay: collagenase digest of sponge after 24 h in plasma, ELISA; data not shown
Procedure: The BMP binding peptide-modified […] collagen sponges generated in Example 2 were evaluated for ability to bind and retain BMP-2. […] The amount of BMP-2 released into the plasma at each time-point was measured by ELISA (QUANTIKINE, R&D SYSTEMS), and the amount retained on the sponge after 24 h was estimated by Western blot analysis. […] After 24 h, the sponges were digested by collagenase, and the amount of BMP-2 retained on the sponges was quantified by ELISA.

BMP-2 [4] = target: T6, BMP-2; assay: relative EC50 of peptide on BMP-2; format not described, data not shown

GGGAWEAFSSLSGSRV [SEQ ID NO: 1]
relative binding affinity for BMP-7 (FIG. 14B) (BMP-7): high relative affinity
binding to BMP-6 (FIG. 14C) (BMP-6): bind
binding to BMP-5 (FIG. 14C) (BMP-5): bind
relative binding affinity for BMP-2 (FIG. 14A) (BMP-2 [1]): high relative affinity

GGALGFPLKGEVVEGWA-NH2 (C-terminus assumed) [SEQ ID NO: 2]
relative binding affinity for BMP-7 (FIG. 14B) (BMP-7): high relative affinity
binding to BMP-6 (FIG. 14C) (BMP-6): bind
effect on BMP-2 biological activity (alkaline phosphatase secretion) (C2C12 cells; BMP-2 35 nM): does not interfere with the biological activity of BMP-2
BMP-2 activity of the peptide on its own (C2C12 cells): does not have BMP-2 activity on its own
binding to BMP-5 (FIG. 14C) (BMP-5): bind
relative binding affinity for BMP-2 (FIG. 14A) (BMP-2 [1]): high relative affinity

SSVAEWALRSWEGMRVGEASR [SEQ ID NO: 7]
binding to GDF-7 (GDF-7 (BMP-12)): binding GDF-7
binding to BMP-6 (FIG. 14C) (BMP-6): bind
binding to BMP-5 (FIG. 14C) (BMP-5): bind

SSGGVGGWALFETLRGKEVSR [SEQ ID NO: 6]
binding to GDF-7 (GDF-7 (BMP-12)): binding GDF-7
binding to BMP-6 (FIG. 14C) (BMP-6): bind
binding to BMP-5 (FIG. 14C) (BMP-5): bind

SSGPREIWDSLVGVVNPGWSR [SEQ ID NO: 5]
binding to GDF-7 (GDF-7 (BMP-12)): binding GDF-7
binding to BMP-6 (FIG. 14C) (BMP-6): bind
binding to BMP-5 (FIG. 14C) (BMP-5): bind

B1: BMP binding peptide SEQ ID NO: 1 (peptide)
peptide: GGGAWEAFSSLSGSRV
modifications: also: biotinylated, position not given here
notes: Synthetic peptide found by phage display on immobilized BMP-2; also called P9
EC50 (BMP-2 [2]): 0.8 nM

B2: BMP binding peptide SEQ ID NO: 2 (peptide)
peptide: GGALGFPLKGEVVEGWA
modifications: also: biotinylated, position not given here
notes: Synthetic peptide found by phage display on immobilized BMP-2; also called P10
EC50 (BMP-2 [2]): 0.9 nM

B3: HS-Propionyl-MP-MP-(SEQ ID NO: 2)-amide, covalently attached to collagen (peptide)
peptide: {Mpa-MP-MP}-GGALGFPLKGEVVEGWA-NH2
modifications: also: attached to collagen through a disulfide
notes: also called Peptide1
fold BMP-2 retained against unmodified sponge after 24 h (BMP-2 [3]): > 40 fold

B4: BMP binding peptide SEQ ID NO: 6 (peptide)
peptide: SSGGVGGWALFETLRGKEVSR
modifications: also: biotinylated for plate assay, position not given here
notes: Found by phage display on immobilized GDF-7; also called P12
EC50 (BMP-2 [4]): 1.8 nM

B5: BMP binding peptide SEQ ID NO: 1 containing a free thiol group, covalently attached to HELISTAT collagen (peptide)
peptide: GGGAWEAFSSLSGSRV
modifications: also: free thiol group added, position and spacer not given here, attached to collagen through a disulfide
notes: also called Peptide2; Peptide 2
fold BMP-2 retained against unmodified sponge after 24 h (BMP-2 [3]): > 40 fold

B6: BMP binding peptide SEQ ID NO: 7 (peptide)
peptide: SSVAEWALRSWEGMRVGEASR
modifications: also: biotinylated for plate assay, position not given here
notes: Found by phage display on immobilized GDF-7; also called P13
EC50 (BMP-2 [4]): 1.1 nM

B7: BMP binding peptide SEQ ID NO: 5 (peptide)
peptide: SSGPREIWDSLVGVVNPGWSR
modifications: also: biotinylated, position not given here
notes: Found by phage display on immobilized GDF-7; also called P11
EC50 (BMP-2 [4]): 2 nM
